Results published in patent US20050038000A1, “Methods and compositions for the treatment of amyloid-and epileptogenesis-associated diseases” (priority 2003, published 2005).

Tested on: spontaneous recurrent seizures
Experiment: "spontaneous recurrent seizures" (SRS) model of epilepsy
Format: in vivo
Conditions: rat, 20 mg/kg/day i.v. for 10 day
Description: The “spontaneous recurrent seizures” (SRS) model of epilepsy is used to evaluate candidate compounds in a model for Phase 1 epileptogenesis (see, e.g., Mello, E. et al., Epilepsia (1993) 34:985; Cavalheiro, J. et al., Epilepsia (1991) 32:778). In the SRS model, an adult male Sprague-Dawley rat (c. 260 g) is given kainic acid by injection ([…].). Within 25 minutes, the animal enters status epilepticus, which typically lasts for 15-20 hours (although about 10% of animals die at this stage). The rat is allowed to spontaneously recover and is given food and water ad lib. and maintained on a 12 hour light/dusk cycle. Beginning on about day 13-15, the rats develop spontaneous recurrent seizures, which occur at the rate of about 4-5 per week. The rats are videotaped 8 hours per day, and the videotapes are reviewed for behavioral seizures (including head nodding, forelimb clonus, and rearing), which are counted. The animals are watched for a few weeks to a few months (2 weeks to three months), permitting evaluation of a sufficient number of seizures. An experimental compound for evaluation can be administered at either of two times: Time 1, on Day 1, after the cessation of status epilepticus but before the onset of SRS; or Time 2, on Day 30, when the rats have been experiencing SRS for about two weeks. […]

`O=C1NC(=O)C(c2ccccc2)(c2ccccc2)N1` [phenytoin] was tested, and the “preventing the onset of seizures” value (administered at Time 1 (Day 1, before onset of SRS)) was “ineffective” and the “effective at decreasing seizure frequency by 50% or more” value (administered at Time 2 (Day 30, established SRS)) was 75%.
